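Compound exposure: 48 hours, 5 concentrations, 96-well plates. Here, GI50 denotes the concentration required for 50% inhibition of growth.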 Active and inactive are the calls of the source. Rule as the data show it: active = GI50 up to about 1.1 µM and inactive = higher.
Key:
Assay in all cases: NCI tumour cell line growth inhibition, 48 h
[1] = tested on: ACHN
[2] = tested on: SF-268
[3] = tested on: BT-549
[4] = tested on: Malme-3M
[5] = tested on: HT-29
[6] = tested on: UO-31
[7] = tested on: TK-10
[8] = tested on: SR
[9] = tested on: OVCAR-3
[10] = tested on: A498
[11] = tested on: MDA-N
[12] = tested on: HCT-15
[13] = tested on: OVCAR-4
[14] = tested on: HCT-116
[15] = tested on: NCI-H522
[16] = tested on: RPMI-8226
[17] = tested on: KM12
[18] = tested on: DU-145
[19] = tested on: HOP-92
[20] = tested on: MCF7
[21] = tested on: CAKI-1
[22] = tested on: CCRF-CEM
[23] = tested on: IGROV-1
[24] = tested on: PC-3
[25] = tested on: A549
[26] = tested on: MOLT-4
[27] = tested on: K562
[28] = tested on: OVCAR-5
[29] = tested on: MDA-MB-435
[30] = tested on: HOP-62
[31] = tested on: 786-0
[32] = tested on: HL-60
[33] = tested on: SF-539
[34] = tested on: NCI-H460
[35] = tested on: NCI-H23
[36] = tested on: T47D
[37] = tested on: SNB-19
[38] = tested on: SK-MEL-28
[39] = tested on: LOX IMVI
[40] = tested on: NCI-H226
[41] = tested on: SK-MEL-5
[42] = tested on: Hs-578T
[43] = tested on: COLO 205
[44] = tested on: EKVX
[45] = tested on: SNB-75
[46] = tested on: SW-620
[47] = tested on: M14
[48] = tested on: RXF 393
[49] = tested on: OVCAR-8
[50] = tested on: SN12C
[51] = tested on: UACC-257
[52] = tested on: HCC 2998
[53] = tested on: MDA-MB-231
[54] = tested on: SF-295
[55] = tested on: NCI/ADR-RES
[56] = tested on: U-251
[57] = tested on: SK-MEL-2
[58] = tested on: UACC-62
[59] = tested on: SK-OV-3

**Q.** `O=c1[nH]nc(Cc2ccccc2)n1/N=C/c1cccnc1` was tested. Which GI50 [1] did it give?
**A.** > 100 µM (inactive)

**Q.** And the GI50 [2]?
**A.** > 100 µM (inactive)

**Q.** And the GI50 [3]?
**A.** 25 µM (inactive)

**Q.** And the GI50 [4]?
**A.** > 100 µM (inactive)

**Q.** What about the GI50 [5] of the same compound?
**A.** > 100 µM (inactive)

**Q.** What about the GI50 [6] of the same compound?
**A.** 71.6 µM (inactive)

**Q.** And the GI50 [7]?
**A.** > 100 µM (inactive)

**Q.** And the GI50 [8]?
**A.** > 100 µM (inactive)

**Q.** What about the GI50 [9] of the same compound?
**A.** > 100 µM (inactive)

**Q.** What about the GI50 [10] of the same compound?
**A.** > 100 µM (inactive)

**Q.** And the GI50 [11]?
**A.** > 100 µM (inactive)

**Q.** What about the GI50 [12] of the same compound?
**A.** > 100 µM

**Q.** And the GI50 [13]?
**A.** > 100 µM (inactive)

**Q.** What about the GI50 [14] of the same compound?
**A.** > 100 µM (inactive)

**Q.** And the GI50 [15]?
**A.** > 100 µM (inactive)

**Q.** What about the GI50 [16] of the same compound?
**A.** > 100 µM (inactive)

**Q.** And the GI50 [17]?
**A.** 27.3 µM (inactive)

**Q.** What about the GI50 [18] of the same compound?
**A.** > 100 µM (inactive)

**Q.** What about the GI50 [19] of the same compound?
**A.** > 100 µM (inactive)

**Q.** What about the GI50 [20] of the same compound?
**A.** > 100 µM (inactive)

**Q.** What about the GI50 [21] of the same compound?
**A.** 12.4 µM (inactive)

**Q.** And the GI50 [22]?
**A.** > 100 µM (inactive)

**Q.** And the GI50 [23]?
**A.** > 100 µM (inactive)

**Q.** What about the GI50 [24] of the same compound?
**A.** > 100 µM (inactive)

**Q.** And the GI50 [25]?
**A.** > 100 µM (inactive)

**Q.** And the GI50 [26]?
**A.** > 100 µM (inactive)

**Q.** And the GI50 [27]?
**A.** > 100 µM (inactive)

**Q.** And the GI50 [28]?
**A.** > 100 µM (inactive)

**Q.** And the GI50 [29]?
**A.** > 100 µM (inactive)

**Q.** What about the GI50 [30] of the same compound?
**A.** > 100 µM (inactive)

**Q.** What about the GI50 [31] of the same compound?
**A.** > 100 µM (inactive)

**Q.** And the GI50 [32]?
**A.** > 100 µM (inactive)

**Q.** What about the GI50 [33] of the same compound?
**A.** > 100 µM (inactive)

**Q.** What about the GI50 [34] of the same compound?
**A.** > 100 µM (inactive)

**Q.** What about the GI50 [35] of the same compound?
**A.** > 100 µM (inactive)

**Q.** What about the GI50 [36] of the same compound?
**A.** > 100 µM (inactive)

**Q.** And the GI50 [37]?
**A.** > 100 µM (inactive)

**Q.** What about the GI50 [38] of the same compound?
**A.** > 100 µM (inactive)

**Q.** And the GI50 [39]?
**A.** > 100 µM (inactive)

**Q.** What about the GI50 [40] of the same compound?
**A.** > 100 µM (inactive)

**Q.** What about the GI50 [41] of the same compound?
**A.** > 100 µM (inactive)

**Q.** And the GI50 [42]?
**A.** > 100 µM (inactive)

**Q.** What about the GI50 [43] of the same compound?
**A.** > 100 µM (inactive)

**Q.** What about the GI50 [44] of the same compound?
**A.** > 100 µM (inactive)

**Q.** What about the GI50 [45] of the same compound?
**A.** > 100 µM (inactive)

**Q.** What about the GI50 [46] of the same compound?
**A.** > 100 µM (inactive)

**Q.** What about the GI50 [47] of the same compound?
**A.** > 100 µM (inactive)

**Q.** What about the GI50 [48] of the same compound?
**A.** > 100 µM (inactive)

**Q.** And the GI50 [49]?
**A.** > 100 µM (inactive)

**Q.** What about the GI50 [50] of the same compound?
**A.** > 100 µM (inactive)

**Q.** And the GI50 [51]?
**A.** > 100 µM (inactive)

**Q.** What about the GI50 [52] of the same compound?
**A.** > 100 µM (inactive)

**Q.** And the GI50 [53]?
**A.** > 100 µM (inactive)

**Q.** What about the GI50 [54] of the same compound?
**A.** > 100 µM (inactive)

**Q.** And the GI50 [55]?
**A.** > 100 µM (inactive)

**Q.** What about the GI50 [56] of the same compound?
**A.** > 100 µM (inactive)

**Q.** Which GI50 [1] does the source give for `Cc1oc2c(cc(O)c3cc(O)ccc32)c2cccc1-2` here?
**A.** > 100 µM (inactive)

**Q.** What about the GI50 [2] of the same compound?
**A.** > 100 µM (inactive)

**Q.** What about the GI50 [3] of the same compound?
**A.** 0.697 µM (active)

**Q.** And the GI50 [4]?
**A.** > 100 µM (inactive)

**Q.** And the GI50 [5]?
**A.** > 100 µM (inactive)

**Q.** And the GI50 [6]?
**A.** > 100 µM (inactive)

**Q.** And the GI50 [7]?
**A.** > 100 µM (inactive)

**Q.** What about the GI50 [8] of the same compound?
**A.** 37 µM (inactive)

**Q.** What about the GI50 [9] of the same compound?
**A.** > 100 µM (inactive)

**Q.** And the GI50 [10]?
**A.** > 100 µM (inactive)

**Q.** What about the GI50 [11] of the same compound?
**A.** > 100 µM (inactive)

**Q.** What about the GI50 [12] of the same compound?
**A.** > 100 µM

**Q.** And the GI50 [14]?
**A.** > 100 µM (inactive)

**Q.** What about the GI50 [15] of the same compound?
**A.** 35.2 µM (inactive)

**Q.** What about the GI50 [16] of the same compound?
**A.** > 100 µM (inactive)

**Q.** What about the GI50 [17] of the same compound?
**A.** > 100 µM (inactive)

**Q.** What about the GI50 [18] of the same compound?
**A.** > 100 µM (inactive)

**Q.** And the GI50 [57]?
**A.** > 100 µM (inactive)

**Q.** What about the GI50 [19] of the same compound?
**A.** > 100 µM (inactive)

**Q.** And the GI50 [20]?
**A.** 33.4 µM (inactive)

**Q.** And the GI50 [21]?
**A.** > 100 µM (inactive)

**Q.** What about the GI50 [22] of the same compound?
**A.** 43.5 µM (inactive)

**Q.** And the GI50 [23]?
**A.** > 100 µM (inactive)

**Q.** And the GI50 [24]?
**A.** > 100 µM (inactive)

**Q.** What about the GI50 [25] of the same compound?
**A.** > 100 µM (inactive)

**Q.** What about the GI50 [26] of the same compound?
**A.** > 100 µM (inactive)

**Q.** What about the GI50 [27] of the same compound?
**A.** > 100 µM (inactive)

**Q.** And the GI50 [58]?
**A.** > 100 µM (inactive)

**Q.** What about the GI50 [28] of the same compound?
**A.** > 100 µM (inactive)

**Q.** What about the GI50 [29] of the same compound?
**A.** > 100 µM (inactive)

**Q.** And the GI50 [30]?
**A.** > 100 µM (inactive)

**Q.** What about the GI50 [31] of the same compound?
**A.** > 100 µM (inactive)

**Q.** And the GI50 [32]?
**A.** > 100 µM (inactive)

**Q.** What about the GI50 [33] of the same compound?
**A.** > 100 µM (inactive)

**Q.** What about the GI50 [34] of the same compound?
**A.** > 100 µM (inactive)

**Q.** And the GI50 [35]?
**A.** > 100 µM (inactive)

**Q.** And the GI50 [36]?
**A.** 42.1 µM (inactive)

**Q.** And the GI50 [37]?
**A.** > 100 µM (inactive)

**Q.** What about the GI50 [38] of the same compound?
**A.** > 100 µM (inactive)

**Q.** What about the GI50 [39] of the same compound?
**A.** > 100 µM (inactive)

**Q.** What about the GI50 [41] of the same compound?
**A.** > 100 µM (inactive)

**Q.** What about the GI50 [42] of the same compound?
**A.** > 100 µM (inactive)

**Q.** What about the GI50 [43] of the same compound?
**A.** > 100 µM (inactive)

**Q.** What about the GI50 [44] of the same compound?
**A.** > 100 µM (inactive)

**Q.** And the GI50 [45]?
**A.** > 100 µM (inactive)

**Q.** And the GI50 [46]?
**A.** > 100 µM (inactive)

**Q.** And the GI50 [47]?
**A.** > 100 µM (inactive)

**Q.** And the GI50 [48]?
**A.** > 100 µM (inactive)

**Q.** And the GI50 [49]?
**A.** > 100 µM (inactive)

**Q.** And the GI50 [50]?
**A.** > 100 µM (inactive)

**Q.** And the GI50 [51]?
**A.** > 100 µM (inactive)

**Q.** And the GI50 [52]?
**A.** > 100 µM (inactive)

**Q.** And the GI50 [53]?
**A.** > 100 µM (inactive)

**Q.** And the GI50 [54]?
**A.** > 100 µM (inactive)

**Q.** And the GI50 [55]?
**A.** > 100 µM (inactive)

**Q.** And the GI50 [56]?
**A.** > 100 µM (inactive)

**Q.** What about the GI50 [59] of the same compound?
**A.** > 100 µM (inactive)

— ChEMBL document CHEMBL1201862, “PubChem BioAssay data set” (2004)
